{"source": "ChEMBL document CHEMBL1149908", "about": "“Involvement of p21 and FasL in induction of cell cycle arrest and apoptosis by neochamaejasmin A in human prostate LNCaP cancer cells” (J Nat Prod, 2008)", "key": {"LNCaP [1]": {"test_system": "LNCaP", "assay": "Decrease of cyclin D expression in human LNCaP cells after 24 hrs by immunoblotting analysis", "type": "functional, cell-based"}, "LNCaP [2]": {"test_system": "LNCaP", "assay": "Induction of apoptosis in human LNCaP cells assessed as procaspase 3 cleavage by immunoblot", "type": "functional, cell-based"}, "LNCaP [3]": {"test_system": "LNCaP", "assay": "Induction of procaspase 3 expression in human LNCaP cells at 50 ug/ml after 48 hrs by immunoblot", "type": "functional, cell-based"}, "LNCaP [4]": {"test_system": "LNCaP", "assay": "Apoptotic activity in human LNCaP cells assessed as induction of FasL expression after 12 hrs", "type": "functional, cell-based"}, "LNCaP [5]": {"test_system": "LNCaP", "assay": "Induction of apoptosis in human LNCaP cells assessed as procaspase 3 cleavage at 12.5 ug/ml by immunoblot", "type": "functional, cell-based", "settings": "TDE = time-dependent effect"}, "L929": {"test_system": "L929", "assay": "Cytotoxicity against mouse L929 cells after 48 hrs by MTT assay", "type": "cell-based", "settings": "L929, 48 h"}, "LNCaP [6]": {"test_system": "LNCaP", "assay": "Induction of procaspase 3 expression in human LNCaP cells at 25 ug/ml after 48 hrs by immunoblot", "type": "functional, cell-based"}, "LNCaP [7]": {"test_system": "LNCaP", "assay": "Induction of apoptosis in human LNCaP cells assessed as procaspase 8 cleavage at 12.5 ug/ml by immunoblot", "type": "functional, cell-based", "settings": "TDE = time-dependent effect"}, "LNCaP [8]": {"test_system": "LNCaP", "assay": "Increase in p21 mRNA expression in human LNCaP cells at >12.5 ug/mL after 24 hrs by RT-PCR", "type": "functional, cell-based"}, "LNCaP [9]": {"test_system": "LNCaP", "assay": "Cell cycle arrest in human LNCaP cells assessed as accumulation in S phase at 6.25 ug/ml after 4 days", "type": "functional"}, "LNCaP [10]": {"test_system": "LNCaP", "assay": "Apoptotic activity in human LNCaP cells assessed as induction of FasL expression at 12.5 ug/ml after 6 hrs by immunoblot", "type": "functional, cell-based"}, "LNCaP [11]": {"test_system": "LNCaP", "assay": "Decrease of PCNA expression in human LNCaP cells after 24 hrs by immunoblotting analysis", "type": "functional, cell-based"}, "LNCaP [12]": {"test_system": "LNCaP", "assay": "Induction of apoptosis in human LNCaP cells assessed as procaspase 8 cleavage by immunoblot", "type": "functional, cell-based"}, "LNCaP [13]": {"test_system": "LNCaP", "assay": "Induction of procaspase 3 expression in human LNCaP cells at 6.25 ug/ml after 48 hrs by immunoblot", "type": "functional, cell-based"}, "LNCaP [14]": {"test_system": "LNCaP", "assay": "Induction of apoptosis in human LNCaP cells assessed as procaspase 8 cleavage at 50 ug/ml by immunoblot", "type": "functional, cell-based", "settings": "TDE = time-dependent effect"}, "LNCaP [15]": {"test_system": "LNCaP", "assay": "Reduction of NF-kappaB binding to cyclin D promoter in human LNCaP cells by electrophoretic mobility shift assay", "type": "cell-based"}, "LNCaP [16]": {"test_system": "LNCaP", "assay": "Apoptotic activity in human LNCaP cells assessed as induction of Fas expression at 12.5 ug/ml after 24 hrs by immunoblot", "type": "functional, cell-based"}, "LNCaP [17]": {"test_system": "LNCaP", "assay": "Induction of apoptosis in human LNCaP cells assessed as subG1 phase accumulation at > 6.25 ug/ml after 4 days", "type": "functional, cell-based"}, "LNCaP [18]": {"test_system": "LNCaP", "assay": "Effect on cell morphology in human LNCaP cells assessed as loss of cell surface structure at => 12.5 ug/mL", "type": "functional"}, "LNCaP [19]": {"test_system": "LNCaP", "assay": "Decrease in mitochondrial membrane potential in human LNCaP cells at 50 ug/ml after 18 hrs", "type": "functional, cell-based"}, "LNCaP [20]": {"test_system": "LNCaP", "assay": "Increase in intracellular ROS generation in human LNCaP cells at 6.25 ug/ml after 30 mins", "type": "functional"}, "LNCaP [21]": {"test_system": "LNCaP", "assay": "Cell cycle arrest in human LNCaP cells assessed as reduction of G1 phase at > 6.25 ug/ml after 4 days", "type": "functional, cell-based"}, "LNCaP [22]": {"test_system": "LNCaP", "assay": "Increase in intracellular ROS generation in human LNCaP cells at 50 ug/ml after 30 mins", "type": "functional"}, "LNCaP [23]": {"test_system": "LNCaP", "assay": "Cell cycle arrest in human LNCaP cells assessed as accumulation in G1 phase at 6.25 ug/ml after 4 days", "type": "functional"}, "LNCaP [24]": {"test_system": "LNCaP", "assay": "Induction of apoptosis in human LNCaP cells assessed as procaspase 3 cleavage at 50 ug/ml by immunoblot", "type": "functional, cell-based", "settings": "TDE = time-dependent effect"}, "LNCaP [25]": {"test_system": "LNCaP", "assay": "Decrease in mitochondrial membrane potential in human LNCaP cells at 6.25 ug/ml after 18 hrs", "type": "functional"}, "[26]": {"biological_target": "Transcription factor Jun (Homo sapiens) (UniProt P05412)", "sequence (P05412 whole entry)": "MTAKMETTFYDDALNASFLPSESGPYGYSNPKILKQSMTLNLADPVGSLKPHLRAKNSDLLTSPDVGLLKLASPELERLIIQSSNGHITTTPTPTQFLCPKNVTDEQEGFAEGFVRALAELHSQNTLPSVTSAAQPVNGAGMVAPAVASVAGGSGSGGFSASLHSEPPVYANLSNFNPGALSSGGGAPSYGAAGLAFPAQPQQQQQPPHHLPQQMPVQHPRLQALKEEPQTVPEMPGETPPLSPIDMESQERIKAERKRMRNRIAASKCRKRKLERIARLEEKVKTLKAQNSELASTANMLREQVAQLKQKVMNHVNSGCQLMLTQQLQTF", "assay": "Reduction of AP1 binding to cyclin D promoter in human LNCaP cells by electrophoretic mobility shift assay", "type": "cell-based"}, "LNCaP [27]": {"test_system": "LNCaP", "assay": "Cytotoxicity against human LNCaP cells after 48 hrs by MTT assay", "type": "functional, cell-based"}, "SW-620": {"test_system": "SW-620", "assay": "Cytotoxicity against human SW620 cells after 48 hrs by MTT assay", "type": "functional, cell-based", "settings": "SW-620, 48 h"}, "LNCaP [28]": {"test_system": "LNCaP", "assay": "Apoptotic activity in human LNCaP cells assessed as induction of p21 expression at 12.5 ug/ml after 12 hrs by immunoblot", "type": "functional, cell-based"}}, "note": "The source made the active and inactive calls. The rule behind the calls is not given here.", "data": [{"smiles": "O=C1c2c(O)cc(O)cc2O[C@H](c2ccc(O)cc2)[C@@H]1[C@@H]1C(=O)c2c(O)cc(O)cc2O[C@@H]1c1ccc(O)cc1", "note": "[NEOCHAMAEJASMIN A]", "values": [{"measurement": "Activity", "setting": "LNCaP [1]", "value": "Dose-dependent effect"}, {"measurement": "Activity", "setting": "LNCaP [2]", "value": "Dose-dependent effect"}, {"measurement": "Activity", "setting": "LNCaP [3]", "value": "Active"}, {"measurement": "Activity", "setting": "LNCaP [4]", "value": "Dose-dependent effect"}, {"measurement": "Activity", "setting": "LNCaP [5]", "value": "tde"}, {"measurement": "IC50", "setting": "L929", "value": 90, "unit": "µg/mL"}, {"measurement": "Activity", "setting": "LNCaP [6]", "value": "Active"}, {"measurement": "Activity", "setting": "LNCaP [7]", "value": "tde"}, {"measurement": "Activity", "setting": "LNCaP [8]", "value": "Active"}, {"measurement": "Activity", "setting": "LNCaP [9]", "value": "<10", "unit": "%"}, {"measurement": "Activity", "setting": "LNCaP [10]", "value": "Active"}, {"measurement": "Activity", "setting": "LNCaP [11]", "value": "Dose-dependent effect"}, {"measurement": "Activity", "setting": "LNCaP [12]", "value": "Dose-dependent effect"}, {"measurement": "Activity", "setting": "LNCaP [13]", "value": "Active"}, {"measurement": "Activity", "setting": "LNCaP [14]", "value": "tde"}, {"measurement": "Activity", "setting": "LNCaP [15]", "value": "Active"}, {"measurement": "Activity", "setting": "LNCaP [16]", "value": "Active"}, {"measurement": "Activity", "setting": "LNCaP [17]", "value": "Active"}, {"measurement": "Activity", "setting": "LNCaP [18]", "value": ">=12.5 ug ml-1"}, {"measurement": "Activity", "setting": "LNCaP [19]", "value": "Active"}, {"measurement": "fold change (FC)", "setting": "LNCaP [20]", "value": 1.5}, {"measurement": "Activity", "setting": "LNCaP [21]", "value": "Dose-dependent effect"}, {"measurement": "fold change (FC)", "setting": "LNCaP [22]", "value": 3.5}, {"measurement": "Activity", "setting": "LNCaP [23]", "value": 75, "unit": "%"}, {"measurement": "Activity", "setting": "LNCaP [24]", "value": "tde"}, {"measurement": "fold change (FC)", "setting": "LNCaP [25]", "value": 1.6}, {"measurement": "Activity", "setting": "[26]", "value": "Active"}, {"measurement": "IC50", "setting": "LNCaP [27]", "value": 12.5, "unit": "µg/mL"}, {"measurement": "IC50", "setting": "SW-620", "value": 25.1, "unit": "µg/mL"}, {"measurement": "Activity", "setting": "LNCaP [28]", "value": "Active"}]}]}
